Laboratory results: US20060079566A1, “PDK-1/Akt signaling inhibitors” (priority 2003, published 2006)
“Also recorded” adds a separate entry of the source. Read-outs that look alike come from different tables or passages of the source.

Tests used:
[1] = test system: sixty human tumor cell lines; assay: NCI DTP sixty cell line assay, means over the panel; assay type: cell-based
Procedure: (§1) Screening of compounds 70 and 71 against several cancer cell lines The human tumor cell lines of the cancer screening panel are grown in RPMI 1640 medium containing 5% fetal bovine serum and 2 mM L-glutamine. For a typical screening experiment, cells are inoculated into 96 well microtiter plates in 100 μL at plating densities ranging from 5,000 to 40,000 cells/well depending on the doubling time of individual cell lines. After cell inoculation, the microtiter plates are incubated at 37° C., 5% CO2, 95% air and 100% relative humidity for 24 h prior to addition of experimental drugs.
(§2) After 24 h, two plates of each cell line are fixed in situ with TCA, to represent a measurement of the cell population for each cell line at the time of drug addition (Tz). Experimental drugs are solubilized in dimethyl sulfoxide at 400-fold the desired final maximum test concentration and stored frozen prior to use. At the time of drug addition, an aliquot of frozen concentrate is thawed and diluted to twice the desired final maximum test concentration with complete medium containing 50 μg/ml gentamicin. Additional four, 10-fold or ½ log serial dilutions are made to provide a total of five drug concentrations plus control. Aliquots of 100 μl of these different drug dilutions are added to the appropriate microtiter wells already containing 100 μl of medium, resulting in the required final drug concentrations.
(§3) Following drug addition, the plates are incubated for an additional 48 h at 37° C., 5% CO2, 95% air, and 100% relative humidity. For adherent cells, the assay is terminated by the addition of cold TCA. Cells are fixed in situ by the gentle addition of 50 μl of cold 50% (w/v) TCA (final concentration, 10% TCA) and incubated for 60 minutes at 4° C. The supernatant is discarded, and the plates are washed five times with tap water and air dried. Sulforhodamine B (SRB) solution (100 μl) at 0.4% (w/v) in 1% acetic acid is added to each well, and plates are incubated for 10 minutes at room temperature. After staining, unbound dye is removed by washing five times with 1% acetic acid and the plates are air dried. Bound stain is subsequently solubilized with 10 mM trizma base, and the absorbance is read on an automated plate reader at a wavelength of 515 nm. For suspension cells, the methodology is the same except that the assay is terminated by fixing settled cells at the bottom of the wells by gently adding 50 μl of 80% TCA (final concentration, 16% TCA). Using the seven absorbance measurements [time zero, (Tz), control growth, (C), and test growth in the presence of drug at the five concentration levels (Ti)], the percentage growth is calculated at each of the drug concentrations levels. Percentage growth inhibition is calculated as: [(Ti−Tz)/(C−Tz)]×100 for concentrations for which Ti>/=Tz [(Ti−Tz)/Tz]×100 for concentrations for which Ti<Tz
(§4) Three dose response parameters are calculated for each experimental agent. […] The drug concentration resulting in total growth inhibition (TGI) is calculated from Ti=Tz. […] Values are calculated for each of these three parameters if the level of activity is reached; however, if the effect is not reached or is exceeded, the value for that parameter is expressed as greater or less than the maximum or minimum concentration tested.

recombinant PDK-1 = target: T1, recombinant PDK-1 (Homo sapiens, UniProt O15530); assay: PDK-1 kinase activity (Upstate kit, SGK-coupled, cell-free); assay type: biochemical; conditions: ratio of IC50 values
T1 construct: purchased Upstate (Lake Placid, N.Y.)
T1 sequence (O15530 1-556): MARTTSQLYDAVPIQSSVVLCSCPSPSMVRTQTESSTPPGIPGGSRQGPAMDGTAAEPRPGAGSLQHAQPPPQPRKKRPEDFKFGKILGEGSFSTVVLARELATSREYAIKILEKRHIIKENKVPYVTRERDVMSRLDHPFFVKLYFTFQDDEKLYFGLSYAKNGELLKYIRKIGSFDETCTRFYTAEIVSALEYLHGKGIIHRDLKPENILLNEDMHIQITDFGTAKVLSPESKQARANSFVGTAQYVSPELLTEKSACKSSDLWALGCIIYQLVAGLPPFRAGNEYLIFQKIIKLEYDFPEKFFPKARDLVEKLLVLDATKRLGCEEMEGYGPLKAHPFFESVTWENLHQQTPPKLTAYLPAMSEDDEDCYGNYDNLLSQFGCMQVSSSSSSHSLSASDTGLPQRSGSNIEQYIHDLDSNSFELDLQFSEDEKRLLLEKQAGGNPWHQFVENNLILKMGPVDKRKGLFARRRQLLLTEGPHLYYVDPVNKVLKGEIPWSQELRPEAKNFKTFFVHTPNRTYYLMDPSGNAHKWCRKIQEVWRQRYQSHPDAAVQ

U251 = assay: NCI DTP screen (SRB), CNS Cancer; assay type: cell-based, human; conditions: Log10 Concentration −4.0
Procedure: as §1, with “drugs. […]” for “drugs.”
Following drug addition, the plates are incubated for an additional 48 h at 37° C., 5% CO2, 95% air, and 100% relative humidity. […] Bound stain is subsequently solubilized with 10 mM trizma base, and the absorbance is read on an automated plate reader at a wavelength of 515 nm. […] Using the seven absorbance measurements [time zero, (Tz), control growth, (C), and test growth in the presence of drug at the five concentration levels (Ti)], the percentage growth is calculated at each of the drug concentrations levels. Percentage growth inhibition is calculated as: [(Ti−Tz)/(C−Tz)]×100 for concentrations for which Ti>/=Tz [(Ti−Tz)/Tz]×100 for concentrations for which Ti<Tz
Three dose response parameters are calculated for each experimental agent. […]

MCP7 = assay: NCI DTP screen (SRB), Breast Cancer; assay type: cell-based, human; conditions: MCF7
Procedure: as §1, §2, §3, §4

MALNE-3M = assay: NCI DTP screen (SRB), Melanoma; assay type: cell-based; conditions: MALME-3M
immunoprecipitated Akt = assay: Direct inhibition of immunoprecipitated Akt kinase activity; assay type: biochemical, human
RXP 393 = assay: NCI DTP screen (SRB), Renal Cancer; assay type: cell-based, human
Procedure: as §1, §2, §3, §4

UO-31 = assay: NCI DTP screen (SRB), Renal Cancer; assay type: cell-based, human; conditions: UD-31
Procedure: as §1, §2, §3, §4

[2] = Preliminary animal studies, daily oral administration; conditions: daily oral administration for one month; data not shown
LOX IMVI = assay: NCI DTP screen (SRB), Melanoma; assay type: cell-based; conditions: LOX IKVI
Procedure: as §1, §2, §3, §4

[3] = in vivo
NCI-H322M = assay: NCI DTP screen (SRB), Non-Small Cell Lung Cancer; assay type: cell-based; conditions: NCI-H322H
Procedure: as §1, §2, §3, §4

HS 57BT = assay: NCI DTP screen (SRB), Breast Cancer; assay type: cell-based; conditions: HS S78T
Procedure: as §1, §2, §3, §4

PC-3 cells [4] = assay: Cell viability analysis (MTT) in PC-3 cells; assay type: cell-based, human
Procedure: (§5) Cell Culture PC-3 (p53−/−) human androgen-nonresponsive prostate cancer cells were purchased from the American […] (Manassas, Va.). Cells were cultured in RPMI 1640 medium (Gibco, Grand Island, N.Y.) supplemented with 10% fetal bovine serum (FBS; Gibco) at 37° C. in a humidified incubator containing 5% CO2.
Cell viability analysis The effect of 4-[5-(4-methylphenyl)-3-(trifluoromethyl)-1H-pyrazol-1-yl]benzenesulfonamide and its derivatives on PC-3 cell viability was assessed by using the MTT {[3-(4,5-dimethylthiazol-2-yl)-2,5-diphenyl-2H-tetrazolium bromide]} assay in six replicates. Cells were grown in 10% FBS-supplemented RPMI 1640 medium in 96-well, flat bottomed plates for 24 h, and were exposed to various concentrations of compounds 1-36 dissolved in DMSO (final concentration ≦0.1%) in 1% serum-containing RPMI 1640 medium for different time intervals. Controls received DMSO vehicle at a concentration equal to that in drug-treated cells. The medium was removed, replaced by 200 μl of 0.5 mg/ml of MTT in 10% FBS-containing RPMI-1640 medium, and cells were incubated in the CO2 incubator at 37° C. for 2 h. Supernatants were removed from the wells, and the reduced MTT dye was solubilized in 200 μL/well DMSO. Absorbance at 570 nm was determined on a plate reader.

Akt = assay: Immunoprecipitated Akt kinase assay from drug-treated PC-3 cells (intracellular Akt activation); assay type: cell-based, human; conditions: PC-3 cells treated 2 h, read-out: IC50 for inhibiting intracellular Akt activation
Procedure: Immunoprecipitated Akt kinase assay Akt immunoprecipitation was carried out according to a modified, published procedure. PC-3 cells were treated with DMSO vehicle or the test agents at the indicated concentrations for 2 h and then lysed at 4° C for 1 h in buffer A containing 50 mM Tris-HCl, pH 7.5, 1% Triton X-100, 1 mM EDTA, 1 mM EGTA, 50 mM sodium fluoride, 10 mM sodium β-glycerophosphate. 0.1% 2-mercaptoethanol, 0.1 mM phenylmethylsulfonyl fluoride, and 1 μg/mL each of aprotinin, pepstatin, and leupeptin. Cell lysates were centrifuged at 10,000 g for 5 min, and the supernatant was treated with anti-Akt at 4° C. for 60 min., followed by protein G-agarose beads for additional 60 min. The immunoprecipitate was used to analyze Akt kinase activity by using the Akt/SGK-specific peptide substrate RPRAATF as described above. Values represented the means of two independent determinations.

PC-3 cells [5] = assay: Cell proliferation (Coulter counter) in PC-3 cells; assay type: cell-based, human; conditions: 1 μM; 10% FBS-supplemented RPMI 1640 medium
Procedure: as §5
Cell proliferation PC-3 cells were seeded into six-well plates at 50,000 cells/well in 10% FBS-containing RPMI 1640 medium. Following a 24 h attachment period, cells were treated in triplicate with the indicated concentration of compounds 1-36 or DMSO vehicle in 10% FBS-containing RPMI-1640 medium. At different time intervals, cells were harvested by trypsinization, and numerated using a Coulter counter model Z1 D/T (Beckman Coulter, Fullerton, Calif.).

phospho-473Ser Akt = assay: Western blot of Akt and phospho-Akt in PC-3 cells; assay type: cell-based, human; conditions: 5 μM and above, 2 h
Procedure: Immunoblotting. The general procedure for the Western blot analysis of Akt and phospho-Akt is described as follows. Cells were washed in PBS, resuspended in SDS sample buffer sonicated by an ultrasonic sonicator for 5 sec, and boiled for 5 min. After brief centrifugation, equivalent protein concentrations from the soluble fractions were resolved in 10% SDS-polyacrylamide gels on a Minigel apparatus, and transferred to a nitrocellulose membrane using a semi-dry transfer cell. The transblotted membrane was washed three times with TBS containing 0.05% Tween 20 (TBST). After blocking with TBST containing 5% nonfat milk for 60 min., the membrane was incubated with the primary antibody at 1:1,000 dilution in TBST-5% low fat milk at 4° C. for 12 h, and was then washed three times with TBST. The membrane was probed with goat anti-rabbit IgG-HRP conjugates (1:1,000) for 1 h at room temperature, and was washed with TBST three times. The immunoblots were visualized by enhanced chemiluminescence.

## N=C(N)Nc1ccc(-n2nc(C(F)(F)F)cc2-c2ccc3c(ccc4ccccc43)c2)cc1 [Compound 71, 4-[5-(2-Phenanthrenyl)-3-(trifluoromethyl)-1H-pyrazol-1-yl]-phenyl-guanidine]
[1]
  range in which cell growth is completely suppressed in a diverse range of tumor cell lines: 3 to 5 µM
[1]; two-day exposure, 5% FBS-containing medium
  concentration at which many cell lines respond to the growth inhibitory effect: ≥ 0.1 µM
[1]; two-day treatment, serum-containing medium, read-out: mean GI50 among the sixty cell lines
  GI50: 1.3 µM
Recombinant PDK-1
  increase in PDK-1 inhibition potency over compound 59: five-fold
U251
  Percent Growth: −12%
MCP7; Log10 Concentration −4.0
  Percent Growth: −49%
MCP7; Log10 Concentration −5.0
  Percent Growth: −84%
MALNE-3M; Log10 Concentration −4.0
  Percent Growth: −50%
MALNE-3M; Log10 Concentration −5.0
  Percent Growth: −87%
Immunoprecipitated Akt
  direct inhibitory effect on immunoprecipitated Akt kinase activity: no appreciable direct inhibition
RXP 393; Log10 Concentration −4.0
  Percent Growth: −4%
RXP 393; Log10 Concentration −5.0
  Percent Growth: −61%
UO-31; Log10 Concentration −4.0
  Percent Growth: −35%
UO-31; Log10 Concentration −5.0
  Percent Growth: −100%
[2]
  toxicity to the animals: little toxicity
LOX IMVI; Log10 Concentration −4.0
  Percent Growth: −53%
LOX IMVI; Log10 Concentration −5.0
  Percent Growth: −98%
[3]
  oral absorption: can be orally absorbed
[3]; po
  average serum concentrations relative to TGI: average serum concentrations several-fold higher than TGI
NCI-H322M; Log10 Concentration −4.0
  Percent Growth: −59%
NCI-H322M; Log10 Concentration −5.0
  Percent Growth: −100%
HS 57BT; Log10 Concentration −4.0
  Percent Growth: −38%
HS 57BT; Log10 Concentration −5.0
  Percent Growth: −69%

## 4-[5-(2-phenanthrenyl)-3-(trifluoromethyl)-1H-1-yl]benzenesulfonamide [Compound 59]
PC-3 cells [4]; 24 h, 1% FBS-containing RPMI 1640 medium, read-out: dose required to induce 50% PC-3 cell death
  IC50: 5 µM
PC-3 cells [4]; inducing apoptotic death in PC-3 cells / PC-3 cell viability, read-out: IC50 PC-3
  IC50: 5 µM
Recombinant PDK-1
  improvement of IC50 values (PDK-1 and PC-3) over the comparative compound: five- to six-fold
Akt
  IC50: 5 µM
Immunoprecipitated Akt
  direct inhibitory effect on immunoprecipitated Akt kinase activity: Neither compound 59 nor other the other compounds displayed a direct inhibitory effect; also recorded: no appreciable direct inhibition
PC-3 cells [5]
  anti-proliferative activity on PC-3 cell proliferation: substantial anti-proliferative activity
phospho-473Ser Akt
  Akt dephosphorylation (Western blot): significant Akt dephosphorylation
